According to patent US10189839B2, “Tricyclic imidazole compounds as inhibitors of tryptophan hydroxylase” (ACTELION PHARMACEUTICALS LTD, priority 2013, dated 2019):
pIC50: −log10 of the molar value.

Biological target: T1, full length human TPH1 (Homo sapiens, UniProt P17752)
T1 construct: To generate the enzyme, full length human TPH1 is cloned into the plasmid pET20b(+); made in house; host or cells: E. coli
T1 sequence (P17752 1-444): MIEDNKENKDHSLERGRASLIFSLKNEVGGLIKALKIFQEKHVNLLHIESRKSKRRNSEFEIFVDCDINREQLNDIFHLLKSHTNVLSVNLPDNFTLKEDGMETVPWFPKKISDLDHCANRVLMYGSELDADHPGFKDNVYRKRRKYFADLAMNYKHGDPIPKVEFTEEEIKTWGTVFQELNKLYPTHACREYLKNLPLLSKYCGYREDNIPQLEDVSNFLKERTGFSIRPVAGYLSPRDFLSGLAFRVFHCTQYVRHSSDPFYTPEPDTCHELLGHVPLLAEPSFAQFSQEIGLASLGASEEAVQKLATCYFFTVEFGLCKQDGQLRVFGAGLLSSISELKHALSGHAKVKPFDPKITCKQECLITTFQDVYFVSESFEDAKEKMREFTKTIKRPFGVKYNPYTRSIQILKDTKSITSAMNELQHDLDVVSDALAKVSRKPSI
Test: Biochemical in vitro assay using fluorescence readout (TPH1 enzyme activity)
Conditions: Table 1, mean where determined several times
In short: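 E. coli-expressed full-length human TPH1 (40-80 nM), affinity- and size-exclusion-purified, incubated 60 min at 15° C. in 0.1M Tris-HCl pH 7.6 with 1 mM DTT, 0.2 mg/ml catalase, 100 μM 6-methyltetrahydropterine and 40 μM L-tryptophan. 5-Hydroxy-L-tryptophan read by fluorescence (ex 300/em 540 nm) after HClO4 quench; IC50 versus vehicle, mean where repeated.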

SMILES | pIC50
COC(=O)c1ccc([C@@H]2c3c(nc4n3CCCC4)CCN2C(=O)COc2ccc(C(=O)NC3CC3)nc2Cl)c(F)c1 [Example 1.23.2, methyl (R)-4-(2-(2-((2-chloro-6-(cyclopropylcarbamoyl)pyridin-3-yl)oxy)acetyl)-1,2,3,4,6,7,8,9-octahydroimidazo[1,2-a:5,4-c′]dipyridin-1-yl)-3-fluorobenzoate] | 7.25
CCc1nc(NS(C)(=O)=O)ccc1OCC(=O)N1CCc2nc3n(c2C1c1nc(-c2ccccc2)no1)CCCC3 (stereo not shown) [Example 1.17.1, N-(6-ethyl-5-(2-oxo-2-(1-(3-phenyl-1,2,4-oxadiazol-5-yl)-3,4,6,7,8,9-hexahydroimidazo[1,2-a:5,4-c′]dipyridin-2(1H)-yl)ethoxy)pyridin-2-yl)methanesulfonamide] | 7.10
O=C(COc1ccc(N2CCOCC2)nc1Cl)N1CCc2nc3n(c2C1c1ccc(C2CC2)cc1F)CCOC3 (stereo not shown) [Example 6.2.1, 2-((2-chloro-6-morpholinopyridin-3-yl)oxy)-1-(6-(4-cyclopropyl-2-fluorophenyl)-3,4,8,9-tetrahydro-1H-pyrido[4′,3′:4,5]imidazo[2,1-c][1,4]oxazin-7(6H)-yl)ethanone] | 8.40
CS(=O)(=O)Nc1ccc(OC2(C(=O)N3CCc4nc5n(c4C3c3ccc(Cl)cc3F)CCCC5)CC2)c(Cl)n1 (stereo not shown) [Example 1.1.19, N-(6-chloro-5-(1-(1-(4-chloro-2-fluorophenyl)-1,2,3,4,6,7,8,9-octahydroimidazo[1,2-a:5,4-c′]dipyridine-2-carbonyl)cyclopropoxy)pyridin-2-yl)methanesulfonamide] | 7.24
COC(=O)c1ccc(C2c3c(nc4n3CCCC4)CCN2C(=O)COc2ccc(NS(C)(=O)=O)nc2Cl)c(F)c1 (stereo not shown) [Example 1.23.1, methyl-4-(2-(2-((2-chloro-6-(methylsulfonamido)pyridin-3-yl)oxy)acetyl)-1,2,3,4,6,7,8,9-octahydroimidazo[1,2-a:5,4-c′]dipyridin-1-yl)-3-fluorobenzoate] | 7.68
CC(=O)N1CCn2c(nc3c2C(c2sc(C)nc2C)N(C(=O)COc2ccc(-c4ncco4)nc2Cl)CC3)C1 (stereo not shown) [Example 5.17.1, 1-(7-acetyl-1-(2,4-dimethylthiazol-5-yl)-3,4,6,7,8,9-hexahydropyrido[4′,3′:4,5]imidazo[1,2-a]pyrazin-2(1H)-yl)-2-((2-chloro-6-(oxazol-2-yl)pyridin-3-yl)oxy)ethanone] | 7.57
CC(=O)N1CCn2c(nc3c2C(c2ccc(C4CC4)cc2F)N(C(=O)COc2cccnc2C(F)(F)F)CC3)C1 (stereo not shown) [Example 5.2.15, 1-(7-acetyl-1-(4-cyclopropyl-2-fluorophenyl)-3,4,6,7,8,9-hexahydropyrido[4′,3′:4,5]imidazo[1,2-a]pyrazin-2(1H)-yl)-2-((2-(trifluoromethyl)pyridin-3-yl)oxy)ethanone] | 8.00

Continued, values first:

pIC50 | SMILES
7.57 | CCc1nc(N2CCCS2(=O)=O)ccc1OCC(=O)N1CCc2nc3n(c2C1c1cnc(C)s1)CCCC3 (stereo not shown) [Example 1.15.2, 2-((6-(1,1-dioxidoisothiazolidin-2-yl)-2-ethylpyridin-3-yl)oxy)-1-(1-(2-methylthiazol-5-yl)-3,4,6,7,8,9-hexahydroimidazo[1,2-a:5,4-c′]dipyridin-2(1H)-yl)ethanone]
6.38 | CN(C)c1ncc(C2c3c(nc4n3CCNC4)CCN2C(=O)COc2ccc(N3CCOCC3)nc2Cl)s1 (stereo not shown) [Example 5.6.1, 2-((2-chloro-6-morpholinopyridin-3-yl)oxy)-1-(1-(2-(dimethylamino)thiazol-5-yl)-3,4,6,7,8,9-hexahydropyrido[4′,3′:4,5]imidazo[1,2-a]pyrazin-2(1H)-yl)ethanone]
8.10 | CCc1nc(NS(C)(=O)=O)ccc1OCC(=O)N1CCc2nc3n(c2C1c1ccc(Cl)cc1F)CCCC3 (stereo not shown) [Example 1.1.11, N-(5-(2-(1-(4-chloro-2-fluorophenyl)-3,4,6,7,8,9-hexahydroimidazo[1,2-a:5,4-c′]dipyridin-2(1H)-yl)-2-oxoethoxy)-6-ethylpyridin-2-yl)methanesulfonamide]
